Results reported in patent US10301353B2, “Co-crystal of carfilzomib with maleic acid and process for the preparation of pure carfilzomib” (DR. REDDY'S LABORATORIES LIMITED, priority 2014, dated 2019).

Tests used:
[1] = storage stability of amorphous carfilzomib; type: physicochemical; settings: at 2-8° C.
Experimental: Carfilzomib amorphous form obtained according to the process of the present application is stable at 2-8° C. for extended periods, i.e., more than 3 month.

proteasome = settings: in animals; cited from earlier work
[2] = tested on: solid and hematologic tumor cells; settings: cited from earlier work
[3] = tested on: models of multiple myeloma, hematologic, and solid tumors; settings: in animals; cited from earlier work

Structure (SMILES)	stable for extended periods [1]	proteasome activity in blood and tissue (proteasome)	activity in vitro in tumor cells [2]	tumor growth [3]
CC(C)C[C@H](NC(=O)[C@H](CCc1ccccc1)NC(=O)CN1CCOCC1)C(=O)N[C@@H](Cc1ccccc1)C(=O)N[C@@H](CC(C)C)C(=O)[C@@]1(C)CO1 [Carfilzomib amorphous form]	more than 3 month			
CC(C)C[C@H](NC(=O)[C@H](CCc1ccccc1)NC(=O)CN1CCOCC1)C(=O)N[C@@H](Cc1ccccc1)C(=O)N[C@@H](CC(C)C)C(=O)[C@@]1(C)CO1 [Carfilzomib, (2S)—N—((S)-1-((S)-4-methyl-1-((R)-2-methyloxiran-2-yl)-1-oxopentan-2-ylcarbamoyl)-2-phenylethyl)-2-((S)-2-(2-morpholinoacetamido)-4-phenylbutanamido)-4-methylpentanamide]		inhibited proteasome activity	antiproliferative and proapoptotic activities	delayed tumor growth
